Results as given in patent US11304929B2, “Tosylacetate based compounds and derivatives thereof as PHGDH inhibitors” (priority 2017, dated 2022).
Where two headings read alike, the source gives them in different places.

Assays:
[1] = molecular target: PHGDH (Homo sapiens (Human), UniProt O43175); test: 3-Phosphoglycerate Dehydrogenase (PHGDH) Fluorescence Intensity Assay, run at two NAD/3-PG ratios: PHGDH_HIGH_NAD/3-PG (250 μM NAD/500 μM 3-PG) and PHGDH_500_NAD/3-PG (500 μM NAD/500 μM 3-PG); assay type: biochemical
[2] = tested on: MDA-MB-468; test: 13C3 Serine Assay MDA-MB-468 (13C3 serine levels by LC/MS/MS); assay type: cell-based; conditions: Homo sapiens
[3] = 250 μM NAD/500 μM 3-PG, read-out: IC50 (PHGDH_HIGH_NAD/3-PG)
[4] = MDA-MB-468, read-out: IC50 (13CSERINE)
[5] = 500 μM NAD/500 μM 3-PG, read-out: IC50 (PHGDH_500_NAD/3-PG)
[6] = MDA-MB-468 cells, 13C3 serine levels by LC/MS/MS, read-out: IC50 (13CSERINE)

Sequence of PHGDH (O43175 2-533 limits assumed): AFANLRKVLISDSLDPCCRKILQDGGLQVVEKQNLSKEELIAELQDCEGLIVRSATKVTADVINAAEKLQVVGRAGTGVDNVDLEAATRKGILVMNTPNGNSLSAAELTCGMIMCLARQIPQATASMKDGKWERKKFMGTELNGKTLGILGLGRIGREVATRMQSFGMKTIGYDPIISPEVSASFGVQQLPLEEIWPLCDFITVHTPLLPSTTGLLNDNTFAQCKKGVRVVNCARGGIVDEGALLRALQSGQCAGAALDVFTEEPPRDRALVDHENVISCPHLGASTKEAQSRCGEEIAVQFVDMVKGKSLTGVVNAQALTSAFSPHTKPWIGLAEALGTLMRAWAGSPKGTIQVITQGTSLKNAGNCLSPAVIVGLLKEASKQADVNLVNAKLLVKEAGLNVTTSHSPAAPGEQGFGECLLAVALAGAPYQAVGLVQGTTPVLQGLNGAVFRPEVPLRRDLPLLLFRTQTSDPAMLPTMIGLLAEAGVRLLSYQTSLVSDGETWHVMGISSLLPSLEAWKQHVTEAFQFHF

| SMILES | IC50 [1, 3] [nM] | IC50 [2, 4] [nM] | IC50 [1, 5] [nM] | IC50 [2, 6] [nM] |
| --- | --- | --- | --- | --- |
| Cc1cc(Cl)c2cc(C(=O)N[C@H](CO)c3ccc(S(=O)(=O)CC(=O)O)cc3)n(C)c2c1 [Example 03-002, 2-{4-[(1S)-1-[(4-chloro-1,6-dimethyl-1H-indol-2-yl)formamido]-2-hydroxyethyl]benzenesulfonyl}acetic acid] | 6 | 1380 | – | – |
| CCCC(C(=O)O)S(=O)(=O)c1ccc([C@@H](C)NC(=O)c2cc3c(Cl)cc(C)cc3n2C)cc1 (stereo partly drawn) [Example 07-012, 2-{4-[(1R)-1-[(4-chloro-1,6-dimethyl-1H-indol-2-yl)formamido]ethyl]benzenesulfonyl}pentanoic acid] | 6 | – | 16 | 2390 |
| CCC(C(=O)OC)S(=O)(=O)c1ccc([C@@H](C)NC(=O)c2cc3c(Cl)cc(C)cc3n2C)cc1 (stereo partly drawn) [Example 05-013, methyl 2-{4-[(1R)-1-[(4-chloro-1,6-dimethyl-1H-indol-2-yl)formamido]ethyl]benzenesulfonyl}butanoate] | 5530 | – | – | 166 |
| COCCOC(=O)C(C)(C)S(=O)(=O)c1ccc([C@@H](C)NC(=O)c2cc3c(Cl)c(Cl)c(C)nc3n2C)cc1 [Example 05-018, 2-methoxyethyl 2-{4-[(1R)-1-({4,5-dichloro-1,6-dimethyl-1H-pyrrolo[2,3-b]pyridin-2-yl}formamido)ethyl]benzenesulfonyl}-2-methylpropanoate] | 5330 | – | – | 142 |
| Cc1cc(Cl)c2cc(C(=O)N[C@H](C)c3ccc(S(=O)(=O)C(C)C(=O)OC(C)(C)C)cc3)n(C)c2c1 (stereo partly drawn) [Example 05-001, tert-butyl 2-{4-[(1R)-1-[(4-chloro-1,6-dimethyl-1H-indol-2-yl)formamido]ethyl]benzenesulfonyl}propanoate] | 24400 | – | – | 891 |
| COC(=O)C1(S(=O)(=O)c2ccc([C@@H](C)NC(=O)c3cc4c(Cl)cc(C)cc4n3C)cc2)CC1 [Example 05-019, methyl 1-{4-[(1R)-1-[(4-chloro-1,6-dimethyl-1H-indol-2-yl)formamido]ethyl]benzenesulfonyl}cyclopropane-1-carboxylate] | 5310 | – | – | 509 |
| CCOC(=O)CS(=O)(=O)c1ccc([C@@H](CO)NC(=O)c2cc3c(Cl)c(Cl)c(C)cc3n2C)cc1 [Example 01-002, ethyl 2-{4-[(1S)-1-[(4,5-dichloro-1,6-dimethyl-1H-indol-2-yl)formamido]-2-hydroxyethyl]benzenesulfonyl}acetate] | 169 | 2.9 | 258 | – |
| Cc1cc(Cl)c2cc(C(=O)N[C@H](C)c3ccc(S(=O)(=O)CC(=O)OCC(C)C)cc3)n(C)c2c1 [Example 09-013, 2-methylpropyl 2-{4-[(1R)-1-[(4-chloro-1,6-dimethyl-1H-indol-2-yl)formamido]ethyl]benzenesulfonyl}acetate] | 19300 | – | – | 70.1 |
| COC(=O)CS(=O)(=O)c1ccc([C@@H](C)NC(=O)c2cc3c(Cl)cc(-c4cnn(C)c4)cc3n2C)cc1 [Example 01-003, methyl 2-{4-[(1R)-1-{[4-chloro-1-methyl-6-(1-methyl-1H-pyrazol-4-yl)-1H-indol-2-yl]formamido}ethyl]benzenesulfonyl}acetate] | 905 | – | – | 109 |
| COC(=O)C1(S(=O)(=O)c2ccc([C@@H](C)NC(=O)c3cc4c(Cl)cc(C)cc4n3C)cc2)CCOCC1 [Example 05-010, methyl 4-{4-[(1R)-1-[(4-chloro-1,6-dimethyl-1H-indol-2-yl)formamido]ethyl]benzenesulfonyl}oxane-4-carboxylate] | 11200 | – | – | 3.7 |
| Cc1cc(Cl)c2cc(C(=O)N[C@H](C)c3ccc(S(=O)(=O)C(C)(C)C(=O)OC(C)C)cc3)n(C)c2c1 [Example 05-012, propan-2-yl 2-{4-[(1R)-1-[(4-chloro-1,6-dimethyl-1H-indol-2-yl)formamido]ethyl]benzenesulfonyl}-2-methylpropanoate] | 25100 | – | – | 906 |
| COC(=O)CS(=O)(=O)c1ccc([C@@H](CO)NC(=O)c2cc3c(Cl)cc(C)cc3n2C)cc1 [Example 01-013, methyl 2-{4-[(1S)-1-[(4-chloro-1,6-dimethyl-1H-indol-2-yl)formamido]-2-hydroxyethyl]benzenesulfonyl}acetate] | 87 | 8.3 | – | – |
| COC(=O)CS(=O)(=O)c1ccc([C@@H](CO)NC(=O)c2cc3c(Cl)c(Cl)c(C)nc3n2C)cc1 [Example 01-023, methyl 2-{4-[(1S)-1-({4,5-dichloro-1,6-dimethyl-1H-pyrrolo[2,3-b]pyridin-2-yl}formamido)-2-hydroxyethyl]benzenesulfonyl}acetate] | 216 | – | – | 0.8 |
| CO[C@@H](C)COC(=O)CS(=O)(=O)c1ccc([C@@H](C)NC(=O)c2cc3c(Cl)cc(C)cc3n2C)cc1 [Example 09-004, (2S)-2-methoxypropyl 2-{4-[(1R)-1-[(4-chloro-1,6-dimethyl-1H-indol-2-yl)formamido]ethyl]benzenesulfonyl}acetate] | 394 | – | – | 78.6 |
| COC(=O)CS(=O)(=O)c1ccc([C@@H](CO)NC(=O)c2cc3c(Cl)c(Cl)c(C)cc3n2C)cc1 [Example 01-007, methyl 2-{4-[(1S)-1-[(4,5-dichloro-1,6-dimethyl-1H-indol-2-yl)formamido]-2-hydroxyethyl]benzenesulfonyl}acetate] | 121 | – | – | 5 |
| COC(=O)CS(=O)(=O)c1ccc([C@@H](C)NC(=O)c2cc(-c3ccccc3)nn2C)cn1 [Example 02-010, methyl 2-({5-[(1R)-1-[(1-methyl-3-phenyl-1H-pyrazol-5-yl)formamido]ethyl]pyridin-2-yl}sulfonyl)acetate] | 3690 | – | – | 594 |
| COC(=O)CS(=O)(=O)c1ccc([C@@H](C)NC(=O)c2cc3c(Cl)c(Cl)c(C)cc3n2C)cc1 [Example 01-001, methyl 2-{4-[(1R)-1-[(4,5-dichloro-1,6-dimethyl-1H-indol-2-yl)formamido]ethyl]benzenesulfonyl}acetate] | 441 | – | – | 7 |
| COC(=O)C(C)(C)S(=O)(=O)c1ccc([C@@H](C)NC(=O)c2cc(-c3ccc(F)cc3)nn2C)cc1 [Example 06-002, methyl 2-{4-[(1R)-1-{[3-(4-fluorophenyl)-1-methyl-1H-pyrazol-5-yl]formamido}ethyl]benzenesulfonyl}-2-methylpropanoate] | 14700 | – | – | 1880 |
| CCOCCOCCOC(=O)CS(=O)(=O)c1ccc([C@@H](C)NC(=O)c2cc3c(Cl)cc(C)cc3n2C)cc1 [Example 09-001, 2-(2-ethoxyethoxy)ethyl 2-{4-[(1R)-1-[(4-chloro-1,6-dimethyl-1H-indol-2-yl)formamido]ethyl]benzenesulfonyl}acetate] | 289 | – | – | 53.8 |
| Cc1cc(Cl)c2cc(C(=O)N[C@H](C)c3ccc(S(=O)(=O)CC(=O)OCCS(C)(=O)=O)cc3)n(C)c2c1 [Example 09-020, 2-methanesulfonylethyl 2-{4-[(1R)-1-[(4-chloro-1,6-dimethyl-1H-indol-2-yl)formamido]ethyl]benzenesulfonyl}acetate] | 54 | – | – | 37.4 |
| COC(=O)CS(=O)(=O)c1ccc([C@@H](CO)NC(=O)c2cc(-c3ccccc3)nn2C)cc1 [Example 02-007, methyl 2-{4-[(1S)-2-hydroxy-1-[(1-methyl-3-phenyl-1H-pyrazol-5-yl)formamido]ethyl]benzenesulfonyl}acetate] | 4340 | – | – | 167 |
| CC(=O)OCCOC(=O)CS(=O)(=O)c1ccc([C@@H](C)NC(=O)c2cc3c(Cl)cc(C)cc3n2C)cc1 [Example 09-002, 2-(acetyloxy)ethyl 2-{4-[(1R)-1-[(4-chloro-1,6-dimethyl-1H-indol-2-yl)formamido]ethyl]benzenesulfonyl}acetate] | 230 | – | – | 69 |
| COC(=O)C(C)(C)S(=O)(=O)c1ccc([C@@H](CO)NC(=O)c2cc3c(Cl)c(Cl)c(C)cc3n2C)cc1 [Example 05-017, methyl 2-{4-[(1S)-1-[(4,5-dichloro-1,6-dimethyl-1H-indol-2-yl)formamido]-2-hydroxyethyl]benzenesulfonyl}-2-methylpropanoate] | 1230 | – | 2960 | 0.3 |
| CCOC(=O)CS(=O)(=O)c1ccc([C@@H](C)NC(=O)c2cc3c(Cl)c(Cl)c(C)nc3n2C)cc1 [Example 01-016, ethyl 2-{4-[(1R)-1-({4,5-dichloro-1,6-dimethyl-1H-pyrrolo[2,3-b]pyridin-2-yl}formamido)ethyl]benzenesulfonyl}acetate] | 1090 | – | – | 72.1 |
| Cc1cc(Cl)c2cc(C(=O)N[C@H](C)c3ccc(S(=O)(=O)CC(=O)NO)cc3)n(C)c2c1 [Example 14-020, 4-chloro-N-[(1R)-1-{4-[(hydroxycarbamoyl)methanesulfonyl]phenyl}ethyl]-1,6-dimethyl-1H-indole-2-carboxamide] | 172 | – | – | 136 |
| Cc1cc(Cl)c2cc(C(=O)N[C@H](C)c3ccc(S(=O)(=O)CC(=O)OCC4(C)COC4)cc3)n(C)c2c1 [Example 09-012, (3-methyloxetan-3-yl)methyl 2-{4-[(1R)-1-[(4-chloro-1,6-dimethyl-1H-indol-2-yl)formamido]ethyl]benzenesulfonyl}acetate] | 303 | – | – | 22.2 |
| COC(=O)CS(=O)(=O)c1ccc([C@@H](C)NC(=O)c2cc3c(Cl)c(Cl)c(C)nc3n2C)cc1 [Example 01-006, methyl 2-{4-[(1R)-1-({4,5-dichloro-1,6-dimethyl-1H-pyrrolo[2,3-b]pyridin-2-yl}formamido)ethyl]benzenesulfonyl}acetate] | 485 | – | – | 88.8 |
| COC(=O)C(C)S(=O)(=O)c1ccc([C@@H](C)NC(=O)c2cc3c(Cl)cc(C)cc3n2C)cc1 (stereo partly drawn) [Example 05-009, methyl 2-{4-[(1R)-1-[(4-chloro-1,6-dimethyl-1H-indol-2-yl)formamido]ethyl]benzenesulfonyl}propanoate] | 1680 | – | – | 1.6 |
